{"source": "patent US6569881B1", "about": "“Substituted benzimidazole, the production thereof and the use thereof as means against parasitic protozoa” (Bayer Aktiengesellschaft, priority 1999, dated 2003)", "type_in_all_cases": "in vivo, chicken chicks", "key": {"[1]": {"test_system": "Eimeria acervulina, Eimeria maxima and Eimeria tenella", "assay": "Cage experiments coccidiosis/chicks, mixed experimental infection", "method": "(§1) The efficacy of the compounds according to the invention can be confirmed, for example, in cage experiments using the following experimental arrangement, in which the animals are treated with the respective individual components and with the mixtures of the individual components.\n(§2) An active compound-containing feed is prepared in such a way that the required amount of active compound is thoroughly mixed with a nutritionally balanced animal feed, e.g. with the chick feed indicated below.\n(§3) 8 to 12 day-old male chicken chicks raised under coccidea-free conditions (e.g. LSL Brinkschulte/Senden) receive the compounds according to the invention (test substances) from 3 days before (day -3) the infection (=a.i.) until 8 (9) days after the infection (=p.i.) with the feed in the concentration indicated in ppm. Three animals are kept in each cage. Per dose, one to a number of groups of this type are employed. Infection is carried out by means of a stomach tube directly into the crop using approximately 100,000 sporulated oocysts of Eimeria acervulina and with in each case approximately 30,000 oocysts of E. maxima and 40,000 sporulated oocysts of E. tenella. These are highly virulent strains. The exact infectious dose is adjusted such that if possible one of three experimentally infected untreated chicks dies due to infection. For the assessment of the efficacy, the following criteria are taken into consideration: weight increase from the start of the experiment to the end of the experiment, death rate due to infection, macroscopic assessment of the faeces with respect to diarrhoea and excretion of blood on days 5 and 7 p.i. (grade 0 to 6), macroscopic grade of the intestinal mucous membrane, in particular of the cecums (grade 0 to 6) and the oocyst excretion and also the proportion (in %) of the oocysts sporulating within 24 hours. The number of oocysts in the faeces was determined with the aid of the McMaster counting chamber (see Engelbrecht and coworkers “Parasitologische Arbeitsmethoden in Medizin und Veterinärmedizin, [Parasitological working methods in medicine and veterinary medicine] Akademie-Verlag, Berlin (1965)). The individual findings are related to the untreated noninfected control groups and an overall grade is calculated (cf. A. Haberkorn (1986), pp. 263 to 270 in Research in Avian Coccidiosis ed L. R. McDougald, L. P. Joyner, P. L. Long Proceedings of the Georgia Coccidiosis Conference Nov, 18-20, 1985 Athens/Ga. USA).\nIn the column “ppm”, the concentration of the active compound employed in the feed is indicated in ppm.\nIn the column “mortality”, the percentage of the animals which have died is indicated under % and the number of the animals which have died/animals employed in the experiment is indicated under n.\nIn the column “weight % of not inf. control”, the ratio of the weight of the treated animals to the weight of the noninfected control group is indicated.\n(§4) In the columns “dropping scores”, “lesion score” and “oocyst control”, individual details of the action are given.\nIn the column “% efficacy”, the overall rating is assessed; 0% means no action, 100% means complete action."}, "Eimeria maxima": {"test_system": "Eimeria maxima", "assay": "Cage experiments coccidiosis/chicks, Eimeria maxima part of the mixed infection", "settings": "for Efficacy against Eimeria maxima (grade): second symbol of cell", "method": "as §1, §2, §3, §4"}, "Eimeria tenella": {"test_system": "Eimeria tenella", "assay": "Cage experiments coccidiosis/chicks, Eimeria tenella part of the mixed infection", "settings": "for Efficacy against Eimeria tenella (grade): third symbol of cell", "method": "as §1, §2, §3, §4"}, "Eimeria acervulina": {"test_system": "Eimeria acervulina", "assay": "Cage experiments coccidiosis/chicks, Eimeria acervulina part of the mixed infection", "settings": "for Efficacy against Eimeria acervulina (grade): first symbol of cell", "method": "as §1, §2, §3, §4"}}}
{"molecule": "Cc1oc(=O)oc1Cn1c(C(F)(F)F)nc2c(Br)cc3c(c21)OC(F)(F)C(F)(F)O3", "note": "[Example 14]", "values": [{"measurement": "% efficacy tot.", "setting": "[1]; 2.5 ppm in feed", "value": 30, "unit": "%"}, {"measurement": "mortality %", "setting": "[1]; 2.5 ppm in feed", "value": 0, "unit": "%"}, {"measurement": "mortality n (died/employed)", "setting": "[1]; 2.5 ppm in feed", "value": "0/3"}, {"measurement": "oocyst in % of inf. control tot.", "setting": "[1]; 2.5 ppm in feed", "value": 35, "unit": "%"}, {"measurement": "weight % of not inf. control", "setting": "[1]; 2.5 ppm in feed", "value": 44, "unit": "%"}, {"measurement": "dropping scores", "setting": "[1]; 2.5 ppm in feed, grade 0 to 6", "value": 6}, {"measurement": "lesion score", "setting": "[1]; 2.5 ppm in feed, grade 0 to 6", "value": 6}, {"measurement": "% efficay tot.", "setting": "[1]; 5 ppm", "value": 0, "unit": "%"}, {"measurement": "dropping scores", "setting": "[1]; 5 ppm", "value": 6}, {"measurement": "lesion score", "setting": "[1]; 5 ppm", "value": 6}, {"measurement": "mortality %", "setting": "[1]; 5 ppm", "value": 33, "unit": "%"}, {"measurement": "mortality n", "setting": "[1]; 5 ppm", "value": "1/3"}, {"measurement": "oocyst in % of inf. control tot.", "setting": "[1]; 5 ppm", "value": "67 % of inf. control"}, {"measurement": "weight % of not inf. control", "setting": "[1]; 5 ppm", "value": "29 % of not inf. control"}, {"measurement": "% efficacy tot.", "setting": "[1]; 5 ppm in feed", "value": 66, "unit": "%"}, {"measurement": "mortality %", "setting": "[1]; 5 ppm in feed", "value": 33, "unit": "%"}, {"measurement": "mortality n (died/employed)", "setting": "[1]; 5 ppm in feed", "value": "1/3"}, {"measurement": "oocyst in % of inf. control tot.", "setting": "[1]; 5 ppm in feed", "value": 2, "unit": "%"}, {"measurement": "weight % of not inf. control", "setting": "[1]; 5 ppm in feed", "value": 90.6, "unit": "%"}, {"measurement": "dropping scores", "setting": "[1]; 5 ppm in feed, grade 0 to 6", "value": 6}, {"measurement": "lesion score", "setting": "[1]; 5 ppm in feed, grade 0 to 6", "value": 5.5}, {"measurement": "% efficay tot.", "setting": "[1]; 7.5 ppm", "value": 45, "unit": "%"}, {"measurement": "dropping scores", "setting": "[1]; 7.5 ppm", "value": 6}, {"measurement": "lesion score", "setting": "[1]; 7.5 ppm", "value": 6}, {"measurement": "mortality %", "setting": "[1]; 7.5 ppm", "value": 0, "unit": "%"}, {"measurement": "mortality n", "setting": "[1]; 7.5 ppm", "value": "0/3"}, {"measurement": "oocyst in % of inf. control tot.", "setting": "[1]; 7.5 ppm", "value": "15 % of inf. control"}, {"measurement": "weight % of not inf. control", "setting": "[1]; 7.5 ppm", "value": "61 % of not inf. control"}, {"measurement": "% efficay tot.", "setting": "[1]; 10 ppm", "value": 45, "unit": "%"}, {"measurement": "dropping scores", "setting": "[1]; 10 ppm", "value": 3}, {"measurement": "lesion score", "setting": "[1]; 10 ppm", "value": 6}, {"measurement": "mortality %", "setting": "[1]; 10 ppm", "value": 0, "unit": "%"}, {"measurement": "mortality n", "setting": "[1]; 10 ppm", "value": "0/3"}, {"measurement": "oocyst in % of inf. control tot.", "setting": "[1]; 10 ppm", "value": "16 % of inf. control"}, {"measurement": "weight % of not inf. control", "setting": "[1]; 10 ppm", "value": "79 % of not inf. control"}, {"measurement": "% efficacy tot.", "setting": "[1]; 10 ppm in feed", "value": 69, "unit": "%"}, {"measurement": "mortality %", "setting": "[1]; 10 ppm in feed", "value": 0, "unit": "%"}, {"measurement": "mortality n (died/employed)", "setting": "[1]; 10 ppm in feed", "value": "0/3"}, {"measurement": "oocyst in % of inf. control tot.", "setting": "[1]; 10 ppm in feed", "value": 4, "unit": "%"}, {"measurement": "weight % of not inf. control", "setting": "[1]; 10 ppm in feed", "value": 81, "unit": "%"}, {"measurement": "dropping scores", "setting": "[1]; 10 ppm in feed, grade 0 to 6", "value": 4}, {"measurement": "lesion score", "setting": "[1]; 10 ppm in feed, grade 0 to 6", "value": 6}, {"measurement": "oocyst in % of inf. control max.", "setting": "Eimeria maxima; 2.5 ppm in feed", "value": 0, "unit": "%"}, {"measurement": "oocyst in % of inf. control max.", "setting": "Eimeria maxima; 5 ppm", "value": "57 % of inf. control"}, {"measurement": "oocyst in % of inf. control max.", "setting": "Eimeria maxima; 5 ppm in feed", "value": 6, "unit": "%"}, {"measurement": "oocyst in % of inf. control max.", "setting": "Eimeria maxima; 7.5 ppm", "value": "1 % of inf. control"}, {"measurement": "oocyst in % of inf. control max.", "setting": "Eimeria maxima; 10 ppm", "value": ">100 % of inf. control"}, {"measurement": "oocyst in % of inf. control max.", "setting": "Eimeria maxima; 10 ppm in feed", "value": 0, "unit": "%"}, {"measurement": "Efficacy against Eimeria maxima (grade)", "setting": "Eimeria maxima; Dose 5 ppm", "value": 2}, {"measurement": "Efficacy against Eimeria maxima (grade)", "setting": "Eimeria maxima; Dose 10 ppm", "value": 2}, {"measurement": "oocyst in % of inf. control ten.", "setting": "Eimeria tenella; 2.5 ppm in feed", "value": 12, "unit": "%"}, {"measurement": "oocyst in % of inf. control ten.", "setting": "Eimeria tenella; 5 ppm", "value": "44 % of inf. control"}, {"measurement": "oocyst in % of inf. control ten.", "setting": "Eimeria tenella; 5 ppm in feed", "value": 1, "unit": "%"}, {"measurement": "oocyst in % of inf. control ten.", "setting": "Eimeria tenella; 7.5 ppm", "value": "15 % of inf. control"}, {"measurement": "oocyst in % of inf. control ten.", "setting": "Eimeria tenella; 10 ppm", "value": "26 % of inf. control"}, {"measurement": "oocyst in % of inf. control ten.", "setting": "Eimeria tenella; 10 ppm in feed", "value": 7, "unit": "%"}, {"measurement": "Efficacy against Eimeria tenella (grade)", "setting": "Eimeria tenella; Dose 5 ppm", "value": 1}, {"measurement": "Efficacy against Eimeria tenella (grade)", "setting": "Eimeria tenella; Dose 10 ppm", "value": 1}, {"measurement": "oocyst in % of inf. control ac.", "setting": "Eimeria acervulina; 2.5 ppm in feed", "value": 92, "unit": "%"}, {"measurement": "oocyst in % of inf. control ac.", "setting": "Eimeria acervulina; 5 ppm", "value": "80 % of inf. control"}, {"measurement": "oocyst in % of inf. control ac.", "setting": "Eimeria acervulina; 5 ppm in feed", "value": 3, "unit": "%"}, {"measurement": "oocyst in % of inf. control ac.", "setting": "Eimeria acervulina; 7.5 ppm", "value": "16 % of inf. control"}, {"measurement": "oocyst in % of inf. control ac.", "setting": "Eimeria acervulina; 10 ppm", "value": "2 % of inf. control"}, {"measurement": "oocyst in % of inf. control ac.", "setting": "Eimeria acervulina; 10 ppm in feed", "value": 1, "unit": "%"}, {"measurement": "Efficacy against Eimeria acervulina (grade)", "setting": "Eimeria acervulina; Dose 5 ppm", "value": 2}, {"measurement": "Efficacy against Eimeria acervulina (grade)", "setting": "Eimeria acervulina; Dose 10 ppm", "value": 2}]}
